From ChEMBL document CHEMBL1201862, “PubChem BioAssay data set” (2004)
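These data come from cells grown in 96-well plates and exposed to compound for 48 hours at five concentrations. GI50 = concentration required for 50% inhibition of growth.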 Active and inactive are the calls of the source. No stated cut-off is given here; in the data, active = GI50 up to about 1.1 µM and inactive = higher.

Tests used:
Experiment in all cases: inhibition of tumour cell growth, NCI panel, 48 h
[1] = test system: OVCAR-5
[2] = test system: NCI-H460
[3] = test system: A498
[4] = test system: SF-539
[5] = test system: OVCAR-3
[6] = test system: M14
[7] = test system: UO-31
[8] = test system: CAKI-1
[9] = test system: SK-MEL-28
[10] = test system: MDA-N
[11] = test system: MDA-MB-435
[12] = test system: U-251
[13] = test system: Malme-3M
[14] = test system: BT-549
[15] = test system: HT-29
[16] = test system: PC-3
[17] = test system: T47D
[18] = test system: HCC 2998
[19] = test system: RXF 393
[20] = test system: HL-60
[21] = test system: CCRF-CEM
[22] = test system: HCT-15
[23] = test system: LOX IMVI
[24] = test system: EKVX
[25] = test system: HOP-92
[26] = test system: NCI-H23
[27] = test system: SK-OV-3
[28] = test system: KM12
[29] = test system: MDA-MB-231
[30] = test system: SF-295
[31] = test system: MCF7
[32] = test system: MOLT-4
[33] = test system: SK-MEL-2
[34] = test system: NCI/ADR-RES
[35] = test system: K562
[36] = test system: SK-MEL-5
[37] = test system: A549
[38] = test system: ACHN
[39] = test system: HCT-116
[40] = test system: UACC-257
[41] = test system: SW-620
[42] = test system: IGROV-1
[43] = test system: HOP-62
[44] = test system: SNB-75
[45] = test system: NCI-H226
[46] = test system: OVCAR-8
[47] = test system: OVCAR-4
[48] = test system: Hs-578T
[49] = test system: RPMI-8226
[50] = test system: SR
[51] = test system: SN12C
[52] = test system: UACC-62
[53] = test system: SNB-19
[54] = test system: COLO 205
[55] = test system: SF-268
[56] = test system: TK-10
[57] = test system: 786-0
[58] = test system: DU-145

`COc1ccc(C(C)NNC(=O)c2ccncc2)cc1OC` (centres undefined) was tested, and the GI50 [1] was > 100 µM (inactive), the GI50 [2] was > 100 µM (inactive) and the GI50 [3] was > 100 µM (inactive). The GI50 [4] was > 100 µM (inactive), the GI50 [5] was > 100 µM (inactive) and the GI50 [6] was > 100 µM (inactive). For the same compound, the GI50 [7] was > 100 µM (inactive), the GI50 [8] was > 100 µM (inactive) and the GI50 [9] was > 100 µM (inactive). For the same compound, the GI50 [10] was > 100 µM (inactive), the GI50 [11] was > 100 µM (inactive) and the GI50 [12] was > 100 µM (inactive). The GI50 [13] was > 100 µM (inactive), the GI50 [14] was > 100 µM (inactive) and the GI50 [15] was > 100 µM (inactive). The GI50 [16] was > 100 µM (inactive), the GI50 [17] was > 100 µM (inactive) and the GI50 [18] was > 100 µM (inactive). The GI50 [19] was > 100 µM (inactive), the GI50 [20] was > 100 µM (inactive) and the GI50 [21] was > 100 µM (inactive). For the same compound, the GI50 [22] was greater than 100 µM, the GI50 [23] was > 100 µM (inactive) and the GI50 [24] was > 100 µM (inactive). For the same compound, the GI50 [25] was > 100 µM (inactive), the GI50 [26] was > 100 µM (inactive) and the GI50 [27] was 26.4 µM (inactive). For the same compound, the GI50 [28] was > 100 µM (inactive), the GI50 [29] was > 100 µM (inactive) and the GI50 [30] was > 100 µM (inactive). The GI50 [31] was > 100 µM (inactive), the GI50 [32] was > 100 µM (inactive) and the GI50 [33] was > 100 µM (inactive). For the same compound, the GI50 [34] was > 100 µM (inactive), the GI50 [35] was > 100 µM (inactive) and the GI50 [36] was > 100 µM (inactive). The GI50 [37] was > 100 µM (inactive), the GI50 [38] was > 100 µM (inactive) and the GI50 [39] was > 100 µM (inactive). The GI50 [40] was > 100 µM (inactive), the GI50 [41] was > 100 µM (inactive) and the GI50 [42] was > 100 µM (inactive). The GI50 [43] was > 100 µM (inactive), the GI50 [44] was > 100 µM (inactive) and the GI50 [45] was > 100 µM (inactive). The GI50 [46] was > 100 µM (inactive), the GI50 [47] was > 100 µM (inactive) and the GI50 [48] was > 100 µM (inactive). For the same compound, the GI50 [49] was > 100 µM (inactive), the GI50 [50] was > 100 µM (inactive) and the GI50 [51] was > 100 µM (inactive). The GI50 [52] was > 100 µM (inactive), the GI50 [53] was > 100 µM (inactive) and the GI50 [54] was > 100 µM (inactive). For the same compound, the GI50 [55] was > 100 µM (inactive), the GI50 [56] was > 100 µM (inactive) and the GI50 [57] was > 100 µM (inactive). For the same compound, the GI50 [58] was > 100 µM (inactive).
With `CCCN1CC=C(c2cc(C(=O)OCC)[nH]c2-c2cc(C)no2)C1=O` the GI50 [1] was > 100 µM (inactive), the GI50 [2] was > 100 µM (inactive) and the GI50 [3] was > 100 µM (inactive). For the same compound, the GI50 [4] was > 100 µM (inactive), the GI50 [5] was > 100 µM (inactive) and the GI50 [6] was > 100 µM (inactive). For the same compound, the GI50 [7] was 89.7 µM (inactive), the GI50 [8] was > 100 µM (inactive) and the GI50 [9] was > 100 µM (inactive). For the same compound, the GI50 [10] was > 100 µM (inactive), the GI50 [11] was > 100 µM (inactive) and the GI50 [12] was > 100 µM (inactive). For the same compound, the GI50 [13] was > 100 µM (inactive), the GI50 [14] was > 100 µM (inactive) and the GI50 [15] was > 100 µM (inactive). The GI50 [16] was > 100 µM (inactive), the GI50 [17] was > 100 µM (inactive) and the GI50 [18] was > 100 µM (inactive). For the same compound, the GI50 [19] was > 100 µM (inactive), the GI50 [20] was > 100 µM (inactive) and the GI50 [21] was 89.3 µM (inactive). The GI50 [22] was greater than 100 µM, the GI50 [23] was > 100 µM (inactive) and the GI50 [24] was > 100 µM (inactive). The GI50 [25] was > 100 µM (inactive), the GI50 [26] was > 100 µM (inactive) and the GI50 [27] was > 100 µM (inactive). The GI50 [28] was > 100 µM (inactive), the GI50 [29] was > 100 µM (inactive) and the GI50 [30] was > 100 µM (inactive). For the same compound, the GI50 [31] was > 100 µM (inactive), the GI50 [32] was 53.6 µM (inactive) and the GI50 [33] was > 100 µM (inactive). The GI50 [34] was > 100 µM (inactive), the GI50 [35] was > 100 µM (inactive) and the GI50 [36] was > 100 µM (inactive). The GI50 [37] was > 100 µM (inactive), the GI50 [39] was > 100 µM (inactive) and the GI50 [40] was > 100 µM (inactive). For the same compound, the GI50 [41] was > 100 µM (inactive), the GI50 [42] was > 100 µM (inactive) and the GI50 [43] was > 100 µM (inactive). The GI50 [44] was 30.8 µM (inactive), the GI50 [45] was 73.5 µM (inactive) and the GI50 [46] was > 100 µM (inactive). The GI50 [47] was > 100 µM (inactive), the GI50 [48] was > 100 µM (inactive) and the GI50 [49] was 75 µM (inactive). The GI50 [50] was 54.7 µM (inactive), the GI50 [51] was > 100 µM (inactive) and the GI50 [52] was > 100 µM (inactive). The GI50 [53] was > 100 µM (inactive), the GI50 [54] was > 100 µM (inactive) and the GI50 [55] was > 100 µM (inactive). The GI50 [57] was > 100 µM (inactive) and the GI50 [58] was > 100 µM (inactive).
